# Like-named read-outs stand apart in the source and are kept apart here.
# Assay: Phase 1 clinical study, pharmacokinetics of granisetron after intravenous and intranasal administration
# Assay type: in vivo, human
# Experimental: This was an open-label safety and PK study conducted at a single site in which healthy volunteers, at weekly intervals, were given the reference intravenous dose, followed by three single escalating nasal doses of TRG at weekly intervals.
# Subjects received one intravenous dose of Kytril® (10 μg/kg) followed by three escalating single doses of TRG. There was a 7 day washout period between each dose.
# The following PK parameters were tested: AUC0-last (ng·h/mL), AUCinf (ng·h/mL), Tmax (hours), Cmax (ng/mL), T1/2 (hours), clearance, and volume of distribution. No efficacy variables were assessed in this safety and PK study.
# The PK parameters T1/2, Tmax, Cmax, AUC0-last, and AUCinf were calculated by using noncompartmental analysis. Values for Tmax and Cmax were reported as the observed values. Terminal elimination rate constants (λz) were determined by log-linear regression of the terminal portion of the concentration-time curves (FIG. 8). Values for T1/2 were calculated as (ln 2)/λz, and AUC0-last was determined by the linear trapezoidal method. AUCinf was calculated as the sum of AUC0-last and Clast/λz where Clast is the last measurable concentration. The absolute bioavailability (F) was calculated for each subject by the dose-corrected AUCinf intranasal divided by AUCinf intravenous. Apparent clearance and volume of distribution were also calculated. To determine the relationship between pharmacokinetic parameters (Cmax, AUClast, and AUC0-∞) and dosage, a multiple regression analysis was performed with log-transformed values. For other pharmacokinetic parameters, analysis of variance (ANOVA) using the mixed effect model was performed to compare between groups.
# [1] = human, plasma, 10 ug/kg, intravenous 10 μg/kg (Kytril), healthy male volunteers, mean, N=8
# [2] = human, plasma, inhaled or intranasal, intranasal 0.5 mg (TRG capsule, single nostril), healthy male volunteers, mean
# [3] = human, plasma, inhaled or intranasal, intranasal 1.0 mg (TRG capsule, single nostril), healthy male volunteers, mean
# [4] = human, plasma, inhaled or intranasal, intranasal 2.0 mg (TRG capsule, single nostril), healthy male volunteers, mean
# [5] = intranasal 0.5 mg (TRG capsule, single nostril), healthy male volunteers, mean
# [6] = intranasal 1.0 mg (TRG capsule, single nostril), healthy male volunteers, mean
# [7] = intranasal 2.0 mg (TRG capsule, single nostril), healthy male volunteers, mean
smiles,measurement,setting,value
"CN1C2CCCC1CC(NC(=O)c1nn(C)c3ccccc13)C2 (stereo not drawn) [Granisetron, endo-N-(9-methyl-9-azabicyclo[3.3.1]non-3-yl)-1-methyl-1H-indazole-3-carboxamide]",AUC(0-inf),[1],103 ng·h/mL
same,AUC(0-t),[1],92.4 ng·h/mL
same,Cmax,[1],16.6 ng/mL
same,clearance,[1],158 mL/min
same,half-life,"human, plasma, 10 ug/kg, intravenous 10 μg/kg (Kytril), healthy male volunteers, mean, N=8, read-out: T1/2 (converted)",8.52 h
same,Vd,"human, plasma, 10 ug/kg, intravenous 10 μg/kg (Kytril), healthy male volunteers, mean, N=8, read-out: Vss",108 L
same,AUC(0-inf),[2],52.7 ng·h/mL
same,AUC(0-t),[2],46.9 ng·h/mL
same,Cmax,[2],4.95 ng/mL
same,half-life,"human, plasma, inhaled or intranasal, intranasal 0.5 mg (TRG capsule, single nostril), healthy male volunteers, mean, read-out: T1/2 (converted)",8.9 h
same,AUC(0-inf),[3],119 ng·h/mL
same,AUC(0-t),[3],105 ng·h/mL
same,Cmax,[3],13.3 ng/mL
same,half-life,"human, plasma, inhaled or intranasal, intranasal 1.0 mg (TRG capsule, single nostril), healthy male volunteers, mean, read-out: T1/2 (converted)",9.52 h
same,AUC(0-inf),[4],236 ng·h/mL
same,AUC(0-t),[4],210 ng·h/mL
same,Cmax,[4],26.6 ng/mL
same,half-life,"human, plasma, inhaled or intranasal, intranasal 2.0 mg (TRG capsule, single nostril), healthy male volunteers, mean, read-out: T1/2 (converted)",9.29 h
same,CL/F,[5],10.6 L/h
same,Vz,[5],131.4 L
same,CL/F,[6],9.1 L/h
same,Vz,[6],122.6 L
same,CL/F,[7],9.2 L/h
same,Vz,[7],122.0 L
same,Tmax,"male, human, plasma, inhaled or intranasal, 0.5 mg, intranasal 0.5 mg (TRG capsule, single nostril), healthy male volunteers, mean, read-out: Tmax",1.34 h
same,Tmax,"male, human, plasma, inhaled or intranasal, 1 mg, intranasal 1.0 mg (TRG capsule, single nostril), healthy male volunteers, mean, read-out: Tmax",0.34 h
same,Tmax,"male, human, plasma, inhaled or intranasal, 2 mg, intranasal 2.0 mg (TRG capsule, single nostril), healthy male volunteers, mean, read-out: Tmax",0.63 h
same,Tmax,"male, human, plasma, inhaled or intranasal, 2 mg, intranasal, 0.5, 1.0 and 2.0 mg doses together, read-out: overall mean Tmax",0.75 h
same,half-life,"male, human, plasma, inhaled or intranasal, after intranasal administration, all dose levels, read-out: overall mean half-life (converted)",9.23 h
same,Tmax,"male, human, plasma, iv, 10 ug/kg, intravenous 10 μg/kg (Kytril), healthy male volunteers, mean, N=8, read-out: Tmax",0.18 h
same,Tmax,"male, human, plasma, iv, 10 μg/kg, intravenous rapid infusion 10 μg/kg, all subjects except one, read-out: Tmax",0.0833 to 0.167 h
